The target of one data set is T1, MMP-3 (Homo sapiens, UniProt P08254).
T1 construct: Catalytic domains MMP-2, MMP-3 and MMP-9 were prepared in Pfizer Central Research laboratories; made in house
Nature of the data set: Inhibition of MMP-3 (fluorogenic peptide cleavage). The data set is classed as biochemical. The conditions noted are these: in vitro, catalytic domain MMP-3. How it is done:
(§1) The biological activities of the compounds of the present invention were determined by the following test methods, which are based on the ability of the compounds to inhibit the cleavage of various fluorogenic peptides by MMPs 1, 2, 3, 9, 13 and 14.
(§2) The assays for MMPs 2, 3, 9 and 14 are based upon the original protocol described in FEBS, 1992, 296, 263, with the minor modifications described below.
(§3) Inhibition of MMP-2, MMP-3 and MMP-9
(§4) Catalytic domains MMP-2, MMP-3 and MMP-9 were prepared in Pfizer Central Research laboratories. A stock solution of MMP-2, MMP-3 or MMP-9 (1 μM) was activated by the addition of APMA. For MMP-2 and MMP-9, a final concentration of 1 mM APMA was added, followed by incubation for 1 hour at 37° C. MMP-3 was activated by the addition of 2 mM APMA, followed by incubation for 3 hours at 37° C. The enzymes were then diluted in Tris-HCl assay buffer (100 mM Tris, 100 mM NaCl, 10 mM CaCl2 and 0.16% Brij 35, pH 7.5) to a concentration of 10 nM. The final concentration of enzyme used in the assays was 1 nM.
(§5) The fluorogenic substrate used in this screen was Mca-Arg-Pro-Lys-Pro-Tyr-Ala-Nva-Trp-Met-Lys(Dnp)-NH2 (Bachem Ltd., Essex, UK) as originally described in J.Biol.Chem., 1994, 269, 20952. This substrate was selected because it has a balanced hydrolysis rate against MMPs 2, 3 and 9 (kcat/km of 54,000, 59,400 and 55,300 s^−1 M^−1 respectively). The final substrate concentration used in the assay was 5 μM.
(§6) Determination of Enzyme Inhibition
(§7) The test compound was dissolved in dimethyl sulphoxide and diluted with assay buffer so that no more than 1% dimethyl sulphoxide was present. Test compound and enzyme were added to each well of a 96 well plate and allowed to equilibrate for 15 minutes at 37° C. in an orbital shaker prior to the addition of substrate. Plates were then incubated for 1 hour at 37° C., prior to determination of fluorescence using a fluorimeter (Fluostar; BMG Lab Technologies, Aylesbury, UK) at an excitation wavelength of 328 nm and emission wavelength of 393 nm. The potency of inhibition was measured from the amount of substrate cleavage obtained using a range of test compound concentrations and, from the resulting dose-response curve, an IC50 value (the concentration of inhibitor required to inhibit 50% of the enzyme activity) was calculated.

The target of the next data set is T2, MMP-2 (Homo sapiens, UniProt P08253).
T2 construct: Catalytic domains MMP-2, MMP-3 and MMP-9 were prepared in Pfizer Central Research laboratories
T2 sequence (P08253 with tags, fused parts or gaps DEL222-396 limits assumed): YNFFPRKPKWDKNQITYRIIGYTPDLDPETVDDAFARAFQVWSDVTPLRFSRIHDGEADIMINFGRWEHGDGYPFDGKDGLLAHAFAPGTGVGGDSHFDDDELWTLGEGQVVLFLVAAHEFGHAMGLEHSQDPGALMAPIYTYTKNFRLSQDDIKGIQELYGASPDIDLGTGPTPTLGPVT
The data set is described as follows: Inhibition of MMP-2 (fluorogenic peptide cleavage). The data set is classed as biochemical. Particulars: in vitro, catalytic domain MMP-2. The protocol: as §1, §2, §3, §4, §5, §6, §7

In the next data set the target is T3, Human recombinant MMP-13 (Homo sapiens, UniProt P45452).
T3 construct: purchased PanVera Corporation (Madison, Wis.)
Nature of the data set: Inhibition of MMP-13 (fluorogenic peptide cleavage). Type of data set: biochemical. Particulars: in vitro. How it is done: as §1
Human recombinant MMP-13 was prepared by PanVera Corporation (Madison, Wis.) and characterised at Pfizer Central Research laboratories. A 1.9 mg/ml stock solution was activated with 2 mM APMA for 2 hours at 37° C. MMP-13 was then diluted in assay buffer (50 mM Tris, 200 mM NaCl, 5 mM CaCl2, 20 μM ZnCl2 and 0.02% Brij 35, pH 7.5) to a concentration of 5.3 nM. The final concentration of enzyme used in the assay was 1.3 nM.
The fluorogenic substrate used in this screen was Dnp-Pro-Cha-Gly-Cys(Me)-His-Ala-Lys(NMA)-NH2. The final substrate concentration used in the assay was10 μM.
as §6
The test compound was dissolved in dimethyl sulphoxide and diluted with assay buffer so that no more than 1% dimethyl sulphoxide was present. Test compound and enzyme were added to each well of a 96 well plate. The addition of substrate to each well initiated the reaction. Fluorescence intensity was determined using a 96 well plate fluorimeter (Cytofluor II; PerSeptive Biosystems, Inc., Framingham, Mass.) at an excitation wavelength of 360 nm and emission wavelength of 460 nm. […]

Experimental findings from patent US6495568B1, “Hydroxamic acid derivatives as matrix metalloprotease (MMP) inhibitors” (Warner-Lambert Company, priority 1997, dated 2002) are described below.

The structures appear in SMILES notation.

T1 sequence (P08254 100-272 limits assumed): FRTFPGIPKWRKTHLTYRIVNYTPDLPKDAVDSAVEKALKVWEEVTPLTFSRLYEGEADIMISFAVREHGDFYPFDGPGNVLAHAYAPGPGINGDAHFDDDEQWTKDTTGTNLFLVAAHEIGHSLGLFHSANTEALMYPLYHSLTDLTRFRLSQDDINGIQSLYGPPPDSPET

Take `Cc1cc(C2=CCN(S(=O)(=O)CC(=O)NO)CC2)ccc1-c1ccccc1` [Example 2, N-Hydroxy-2-[4-(3-methyl-4-phenylphenyl)-1,2,3,6-tetrahydropyridin-1-ylsulphonyl]acetamide]: the melting point – broadly, the temperature, or range, at which the solid turns liquid – is 190 to 191 °C. Further, on MMP-3, the IC50 – broadly, the concentration needed to halve the response being measured – came out at 16 nM. Also, the midpoint of inhibition at MMP-2, the IC50, lay at 315 nM. The IC50 on Human recombinant MMP-13 was 28 nM.
Turning to `O=C(CS(=O)(=O)N1CCC(c2ccc(-c3ccccc3)cc2)CC1)NO` [Example 3, N-Hydroxy-2-[4-(4-phenylphenyl)piperidin-1-ylsulphonyl]acetamide], the melting point lay within 200 to 201 °C. Besides, at MMP-3, it took 26 nM to reach half-maximal inhibition (IC50). Moreover, the IC50 on MMP-2 was 38 nM. Besides, on Human recombinant MMP-13, the IC50 was 25 nM.
